The source of these data is ChEMBL document CHEMBL3832548, “DailyMed|setid=ba1cca98-f350-4655-88e3-6ef990779fb9 | KETEK - telithromycin tablet, film coated|Physicians Total Care, Inc”.

Holding throughout (assay type): ADME, organism-based
Series [1] is described as follows: (§1) The pharmacokinetics of Telithromycin evaluated after administration of Ketek to subjects. Particulars: human, in vivo; dosed compound id 4, dosed compound name TELITHROMYCIN, route oral, tissue Feces; read-out: Excretion.
Another series has as its system Homo sapiens. The description is as §1. Particulars: in vivo, po, dosed compound id 4, dosed compound name TELITHROMYCIN, tissue Urine.
Series [2] can be described thus: The pharmacokinetics of Telithromycin evaluated after administration of single 800-mg doses to healthy adult subjects. On the set-up: dose 800 mg, route oral. As to conditions: human, in vivo, dosed compound id 4, dosed compound name TELITHROMYCIN, gender adult male and female, regimen Single dose, tissue Plasma.
Series [3] is described as follows: The pharmacokinetics of Telithromycin evaluated after administration of multiple 800-mg doses to healthy adult subjects. As to conditions: human, in vivo, dosed compound id 4, dosed compound name TELITHROMYCIN, gender adult male and female, regimen Multiple dose, tissue Plasma. On the set-up: dose 800 mg, route oral.
Setting [4] is: po, 800 mg, read-out: AUC(0-24).

As a reminder, the Cmax is the peak of the concentration-time curve. By AUC is commonly meant the area under the concentration-time curve, a measure of exposure. As a reminder, the Tmax is the time from dosing to the highest level. One may read the half-life as the time in which the quantity being followed falls by half. A low value points to rapid decline. Take `CC[C@H]1OC(=O)[C@H](C)C(=O)[C@H](C)[C@@H](O[C@@H]2O[C@H](C)C[C@H](N(C)C)[C@H]2O)[C@](C)(OC)C[C@@H](C)C(=O)[C@H](C)[C@H]2N(CCCCn3cnc(-c4cccnc4)c3)C(=O)O[C@]12C` [TELITHROMYCIN]: the dose excreted in series [1] is 7%. In the series on Homo sapiens, this molecule showed an Excretion of 13%. Moreover, the Cmax in series [2] (po, 800 mg) worked out at 1900 ng/mL; in series [3] (po, 800 mg), 2270 ng/mL. The results for the AUC in series [2] (setting [4]) and in series [3] (setting [4]) were 8250 ng·h/mL and 12500 ng·h/mL, respectively. The Tmax in series [2] (dose 800 mg, route oral) stood at 1 h; in series [3] (dose 800 mg, route oral), 1 h. Further, the half-life was 7.16 h in series [2] (dose 800 mg, route oral) and 9.81 h in series [3] (dose 800 mg, route oral). Further, in series [2] (dose 800 mg, route oral, read-out: C(24h)), the concentration at 24 h was 30 ng/mL.
